Species on record: Rattus norvegicus
Experiment: DrugMatrix - Regimen: Daily Repeat
Format: toxicity, organism-based, Sprague-Dawley
Set-up: regimen Daily Repeat, gender Male, age 6-8 weeks
Conditions: in vivo, po, route oral GAVAGE, […]; for ABSOLUTE BASOPHIL / ABSOLUTE EOSINOPHIL / ABSOLUTE LYMPHOCYTE / ABSOLUTE MONOCYTE / ABSOLUTE SEGMENTED NEUTROPHIL / BASOPHIL / EOSINOPHIL / ERYTHROCYTE COUNT / HEMATOCRIT / HEMOGLOBIN / LEUKOCYTE COUNT / LYMPHOCYTE / MEAN CORPUSCULAR HEMOGLOBIN / MEAN CORPUSCULAR HEMOGLOBIN CONCENTRATION / MEAN CORPUSCULAR VOLUME / MONOCYTE / NEUTROPHIL / NUCLEATED RED BLOOD CELLS / PLATELET COUNT: tissue Blood; for ALANINE AMINOTRANSFERASE / ALBUMIN / ALKALINE PHOSPHATASE / ASPARTATE AMINOTRANSFERASE / BLOOD UREA NITROGEN / CARBON DIOXIDE / CHLORIDE / CHOLESTEROL / CREATINE PHOSPHOKINASE / CREATININE / GLUCOSE / LACTATE DEHYDROGENASE / LIPASE / PHOSPHORUS / POTASSIUM / SODIUM / TOTAL BILIRUBIN / TOTAL PROTEIN / URIC ACID: tissue Plasma
[1] = 20 mg/kg, 120 h, dose level Low, time 5 day
[2] = 200 mg/kg, 72 h, dose level High, time 3 day
[3] = 200 mg/kg, 120 h, dose level High, time 5 day
[4] = 200 mg/kg, dose level High, time 28 day

CCCCCCCCCc1ccc(O)cc1 [4-NONYLPHENOL]
ABSOLUTE BASOPHIL [1]: 0 CELLS/uL
ABSOLUTE EOSINOPHIL [1]: 0 CELLS/uL
ABSOLUTE LYMPHOCYTE [1]: 17193.33 CELLS/uL
ABSOLUTE MONOCYTE [1]: 138.33 CELLS/uL
ABSOLUTE SEGMENTED NEUTROPHIL [1]: 1901.67 CELLS/uL
BASOPHIL [1]: 0%
EOSINOPHIL [1]: 0%
ERYTHROCYTE COUNT [1]: 5.43 x10E6/uL
HEMATOCRIT [1]: 34.2%
HEMOGLOBIN [1]: 13.17 G/DL
LEUKOCYTE COUNT [1]: 19.23 x10E3/uL
LYMPHOCYTE [1]: 89.67%
MEAN CORPUSCULAR HEMOGLOBIN [1]: 24.2 pg
MEAN CORPUSCULAR HEMOGLOBIN CONCENTRATION [1]: 38.5 G/DL
MEAN CORPUSCULAR VOLUME [1]: 62.9 fL
MONOCYTE [1]: 0.67%
NEUTROPHIL [1]: 9.67%
NUCLEATED RED BLOOD CELLS [1]: 0 /100WBC
PLATELET COUNT [1]: 1124 x10E3/uL
ALANINE AMINOTRANSFERASE [1]: 65.33 u/L
ALBUMIN [1]: 3.77 G/DL
ALKALINE PHOSPHATASE [1]: 413 u/L
ASPARTATE AMINOTRANSFERASE [1]: 82.67 u/L
BLOOD UREA NITROGEN [1]: 15.67 mg/dL
CARBON DIOXIDE [1]: 25.67 mmol/L
CHLORIDE [1]: 102.33 MEQ/L
CHOLESTEROL [1]: 56.33 mg/dL
CREATINE PHOSPHOKINASE [1]: 278 u/L
CREATININE [1]: 0.21 mg/dL
GLUCOSE [1]: 202.33 mg/dL
LACTATE DEHYDROGENASE [1]: 147 u/L
LIPASE [1]: 10.67 u/L
PHOSPHORUS [1]: 10.77 mg/dL
POTASSIUM [1]: 5.35 MEQ/L
SODIUM [1]: 142.1 MEQ/L
TOTAL BILIRUBIN [1]: 0.2 mg/dL
TOTAL PROTEIN [1]: 5.57 G/DL
URIC ACID [1]: 1.3 mg/dL
ABSOLUTE BASOPHIL [2]: 0 CELLS/uL
ABSOLUTE EOSINOPHIL [2]: 0 CELLS/uL
ABSOLUTE LYMPHOCYTE [2]: 7018 CELLS/uL
ABSOLUTE MONOCYTE [2]: 153.33 CELLS/uL
ABSOLUTE SEGMENTED NEUTROPHIL [2]: 495.33 CELLS/uL
BASOPHIL [2]: 0%
EOSINOPHIL [2]: 0%
ERYTHROCYTE COUNT [2]: 5.58 x10E6/uL
HEMATOCRIT [2]: 35.4%
HEMOGLOBIN [2]: 13.8 G/DL
LEUKOCYTE COUNT [2]: 7.67 x10E3/uL
LYMPHOCYTE [2]: 92%
MEAN CORPUSCULAR HEMOGLOBIN [2]: 24.73 pg
MEAN CORPUSCULAR HEMOGLOBIN CONCENTRATION [2]: 39 G/DL
MEAN CORPUSCULAR VOLUME [2]: 63.47 fL
MONOCYTE [2]: 2%
NEUTROPHIL [2]: 6%
NUCLEATED RED BLOOD CELLS [2]: 0 /100WBC
PLATELET COUNT [2]: 1128 x10E3/uL
ALANINE AMINOTRANSFERASE [2]: 81.33 u/L
ALBUMIN [2]: 3.77 G/DL
ALKALINE PHOSPHATASE [2]: 503.67 u/L
ASPARTATE AMINOTRANSFERASE [2]: 95.67 u/L
BLOOD UREA NITROGEN [2]: 14.33 mg/dL
CARBON DIOXIDE [2]: 32 mmol/L
CHLORIDE [2]: 103 MEQ/L
CHOLESTEROL [2]: 45.33 mg/dL
CREATINE PHOSPHOKINASE [2]: 276.67 u/L
CREATININE [2]: 0.21 mg/dL
GLUCOSE [2]: 139 mg/dL
LACTATE DEHYDROGENASE [2]: 138.67 u/L
LIPASE [2]: 10 u/L
PHOSPHORUS [2]: 10.23 mg/dL
POTASSIUM [2]: 5.46 MEQ/L
SODIUM [2]: 145.47 MEQ/L
TOTAL BILIRUBIN [2]: 0.1 mg/dL
TOTAL PROTEIN [2]: 5.47 G/DL
URIC ACID [2]: 0.9 mg/dL
ABSOLUTE BASOPHIL [3]: 0 CELLS/uL
ABSOLUTE EOSINOPHIL [3]: 0 CELLS/uL
ABSOLUTE LYMPHOCYTE [3]: 11098.67 CELLS/uL
ABSOLUTE MONOCYTE [3]: 165.33 CELLS/uL
ABSOLUTE SEGMENTED NEUTROPHIL [3]: 402.67 CELLS/uL
NUCLEATED RED BLOOD CELLS [3]: 0 /100WBC
CARBON DIOXIDE [3]: 26.67 mmol/L
LACTATE DEHYDROGENASE [3]: 116.33 u/L
LIPASE [3]: 10.33 u/L
URIC ACID [3]: 1.43 mg/dL
BASOPHIL [4]: 0.42%
EOSINOPHIL [4]: 0.61%
ERYTHROCYTE COUNT [4]: 8.21 x10E6/uL
HEMATOCRIT [4]: 48.61%
HEMOGLOBIN [4]: 16.26 G/DL
LEUKOCYTE COUNT [4]: 11.53 x10E3/uL
LYMPHOCYTE [4]: 85.82%
MEAN CORPUSCULAR HEMOGLOBIN [4]: 19.84 pg
MEAN CORPUSCULAR HEMOGLOBIN CONCENTRATION [4]: 33.5 G/DL
MEAN CORPUSCULAR VOLUME [4]: 59.24 fL
MONOCYTE [4]: 1.34%
NEUTROPHIL [4]: 10.54%
PLATELET COUNT [4]: 1292.8 x10E3/uL
ALANINE AMINOTRANSFERASE [4]: 29.3 u/L
ALBUMIN [4]: 3.91 G/DL
ALKALINE PHOSPHATASE [4]: 186.6 u/L
ASPARTATE AMINOTRANSFERASE [4]: 70.1 u/L
BLOOD UREA NITROGEN [4]: 11.8 mg/dL
CHLORIDE [4]: 107.1 MEQ/L
CHOLESTEROL [4]: 66 mg/dL
CREATINE PHOSPHOKINASE [4]: 191.6 u/L
CREATININE [4]: 0.46 mg/dL
GLUCOSE [4]: 145.6 mg/dL
PHOSPHORUS [4]: 12.09 mg/dL
POTASSIUM [4]: 6.67 MEQ/L
SODIUM [4]: 149 MEQ/L
TOTAL BILIRUBIN [4]: 0.23 mg/dL
TOTAL PROTEIN [4]: 6.7 G/DL

— ChEMBL document CHEMBL3885881, “DrugMatrix”
